Assay results reported in ChEMBL document CHEMBL3352451, “Cyclic side-chain-linked opioid analogs utilizing cis- and trans-4-aminocyclohexyl-D-alanine” (Bioorg Med Chem, 2014).
Bridge positions count the residues as written; N and C are the ends. Square brackets hold non-standard residues; d marks the D form. Peptide text beside a SMILES is read from it.

How the values were obtained:
[1] = target: Mu-type opioid receptor (Rattus norvegicus, UniProt P33535); assay: Displacement of [3H]DAMGO from MOR in Wistar rat brain membranes by liquid scintillation counting method; assay type: cell membranes, Membrane
Mu-type opioid receptor, sequence (P33535 whole entry): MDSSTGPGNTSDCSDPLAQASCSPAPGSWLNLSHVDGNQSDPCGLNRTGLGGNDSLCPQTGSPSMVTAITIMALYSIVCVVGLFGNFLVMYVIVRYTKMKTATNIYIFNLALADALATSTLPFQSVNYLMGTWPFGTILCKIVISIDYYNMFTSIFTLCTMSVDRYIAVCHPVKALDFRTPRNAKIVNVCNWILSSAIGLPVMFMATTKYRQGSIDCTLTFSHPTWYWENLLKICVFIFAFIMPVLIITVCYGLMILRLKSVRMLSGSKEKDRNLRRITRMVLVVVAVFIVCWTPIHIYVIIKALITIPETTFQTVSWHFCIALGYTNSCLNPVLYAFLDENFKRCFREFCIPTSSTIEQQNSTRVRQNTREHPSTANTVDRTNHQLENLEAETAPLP

[2] = target: Delta-type opioid receptor (Rattus norvegicus, UniProt P33533); assay: Displacement of [3H][Ile5,6]deltorphin-2 from DOR in Wistar rat brain membranes by liquid scintillation counting method; assay type: cell membranes, Membrane
Delta-type opioid receptor, sequence (P33533 whole entry): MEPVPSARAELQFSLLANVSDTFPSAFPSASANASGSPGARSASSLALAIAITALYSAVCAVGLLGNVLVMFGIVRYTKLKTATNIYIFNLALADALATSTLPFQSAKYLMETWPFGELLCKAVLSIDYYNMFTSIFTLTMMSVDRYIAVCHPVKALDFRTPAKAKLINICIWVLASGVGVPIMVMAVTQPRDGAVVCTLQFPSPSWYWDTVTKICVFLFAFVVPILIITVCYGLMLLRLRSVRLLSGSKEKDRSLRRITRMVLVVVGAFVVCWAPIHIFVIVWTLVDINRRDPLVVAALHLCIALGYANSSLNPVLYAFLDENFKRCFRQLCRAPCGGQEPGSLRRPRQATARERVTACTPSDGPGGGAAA

[3] = target: Kappa-type opioid receptor (Cavia porcellus, UniProt P41144); assay: Displacement of [3H]nor-BNI from KOR in Dunkin Hartley guinea pig membranes by liquid scintillation counting method; assay type: cell membranes
Kappa-type opioid receptor, sequence (P41144 whole entry): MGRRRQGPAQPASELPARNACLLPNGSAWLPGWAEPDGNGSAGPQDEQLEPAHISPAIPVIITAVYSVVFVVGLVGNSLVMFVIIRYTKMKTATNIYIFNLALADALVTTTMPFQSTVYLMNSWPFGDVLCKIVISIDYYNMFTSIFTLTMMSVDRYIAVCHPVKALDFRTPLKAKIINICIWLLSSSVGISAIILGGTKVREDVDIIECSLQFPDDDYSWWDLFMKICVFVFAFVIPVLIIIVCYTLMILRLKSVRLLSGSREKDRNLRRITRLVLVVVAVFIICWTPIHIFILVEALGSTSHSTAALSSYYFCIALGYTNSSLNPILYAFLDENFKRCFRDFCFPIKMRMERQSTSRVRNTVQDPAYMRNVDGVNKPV

SMILES	IC50 [1]	IC50 [2]	IC50 [3]
NC(=O)[C@@H]1CC(=O)N[C@H]2CC[C@H](CC2)C[C@@H](NC(=O)[C@@H](N)Cc2ccc(O)cc2)C(=O)N[C@@H](Cc2ccccc2)C(=O)N[C@@H](Cc2ccccc2)C(=O)N1	3.2 nM	> 1000 nM	–
NC(=O)[C@@H]1CC(=O)N[C@H]2CC[C@@H](CC2)C[C@@H](NC(=O)[C@@H](N)Cc2ccc(O)cc2)C(=O)N[C@@H](Cc2ccccc2)C(=O)N[C@@H](Cc2ccccc2)C(=O)N1	2.08 nM	3.9 nM	–
Cc1cc(O)cc(C)c1C[C@H](N)C(=O)N[C@@H]1C[C@H]2CC[C@H](CC2)NC(=O)C[C@@H](C(N)=O)NC(=O)[C@H](Cc2ccccc2)NC(=O)[C@H](Cc2ccccc2)NC1=O	0.04 nM	> 1000 nM	> 1000 nM
Cc1cc(O)cc(C)c1C[C@H](N)C(=O)N[C@@H]1C[C@H]2CC[C@@H](CC2)NC(=O)C[C@@H](C(N)=O)NC(=O)[C@H](Cc2ccccc2)NC(=O)[C@H](Cc2ccccc2)NC1=O	0.022 nM	0.38 nM	25 nM
NC(=O)[C@@H]1CC(=O)NCCCC[C@@H](NC(=O)[C@@H](N)Cc2ccc(O)cc2)C(=O)N[C@@H](Cc2ccccc2)C(=O)N[C@@H](Cc2ccccc2)C(=O)N1 (H-Y[dK]FFD-NH2; lactam 2-5)	–	–	2.36 nM
